Measured values from patent US9242945B2, “Substituted 2-benzylidene-2H-benzo[b][1,4]thiazin-3(4H)-ones, derivatives thereof, and therapeutic uses thereof” (TEMPLE UNIVERSITY—OF THE COMMONWEALTH SYSTEM OF HIGHER …, priority 2011, dated 2016).

What was measured:
MiaPaca 2 = assay: Cancer cell cytotoxicity assay, MiaPaca 2; format: cell-based; details: Homo sapiens, MIA PaCa-2; MiaPaca 2, Pancreatic Cancer
Protocol: (§1) The effect of the compounds of the invention on tumor cells was determined by the assay described by Latham et al., Oncogene 12:827-837 (1996). Tumor cells K562 (chronic myelogenous leukemia; leukemia cell line +ve for Bcr-Abl) or DU145 (prostate cancer) were plated in 12-well dishes at a cell density of 2.5×10^4 cells well. The plated cells were treated 24 hours later with a compound of the invention dissolved in DMSO at multiple concentrations ranging from 0.01 μM to 100 μM. The plates were examined 96 hours later under an inverted microscope, Olympus CK-2 using a 10× objective, and compound activity was noted by physical observation. When necessary, the total number of viable cells was determined by trypsinizing the wells and counting the number of viable cells, as determined by trypan blue exclusion, using a hemacytometer. Where “Lower” and “Upper” value are provided in Table 5, the IC50 was determined to be within that range. […]
(§2) The cytotoxicity of Compound 42, (Z)-6-((2,6-dichlorobenzyl)sulfonyl)-2-(4-hydroxy-3-nitrobenzylidene)-2H-benzo[b][1,4]thiazin-3(4H)-one, was determined according the assay method of Example 7 on the prostate (androgen dependent or independent), breast and pancreatic cancer cell lines listed in Table 6A, below, and the additional cell lines listed in Table 6B, below. […]

PIM1 = biological target: T1, PIM1 (Homo sapiens, UniProt P11309); assay: PIM1 inhibition (32P-ATP kinase assay); format: biochemical; details: K9 Peptide substrate, 20 μM cold ATP
T1 construct: PIM1 (human full length protein; Invitrogen PV3503); purchased Invitrogen PV3503
Protocol: The ability of Compound 42 to inhibit the activity of the kinase proto-ocogene pim-was determined as follows. Ten nanograms of PIM1 (human full length protein; Invitrogen PV3503) was diluted into kinase buffer (20 mM Tris pH 7.5, 10 mM MgCl2, 0.01% NP-40, 1 mM EGTA, 2 mM DTT) and incubated with varying concentrations of Compound 42 at room temperature for 30 minutes. The kinase reactions were initiated by the addition of 20 μM of PIM1 specific synthetic peptide substrate (K9 Peptide; p70S6 Kinase Substrate; AnaSpec, San Jose, Calif.), 20 μM cold ATP, and 20 μCi γ-^32P-ATP. The reactions were incubated at 30° C. for 20 minutes and terminated by the addition of 0.5M o-Phosphoric acid. 10 μl of the reaction mixture was spotted on a P-30 Filtermat (PerkinElmer) and developed using autoradiography or phosphorimaging.

[1] = test system: MDA.MB-231 breast cancer cells; assay: Cell cycle arrest in cancer cells; format: cell-based; details: increasing concentrations
From the text: MDA.MB-231 breast cancer cells treated with increasing concentrations Compound 42

MDA.MB-231 = assay: Cancer cell cytotoxicity assay, MDA.MB-231; format: cell-based; details: Homo sapiens; MDA.MB-231, Breast Cancer
Protocol: as §1, §2

DU145 (prostate cancer) = assay: Cytotoxicity assay, DU145 tumor cells; format: cell-based; details: Homo sapiens
Protocol: (§3) The effect of the compounds of the invention on tumor cells was determined by the assay described by Latham et al., Oncogene 12:827-837 (1996). Tumor cells K562 (chronic myelogenous leukemia; leukemia cell line +ve for Bcr-Abl) or DU145 (prostate cancer) were plated in 12-well dishes at a cell density of 2.5×10^4 cells well. The plated cells were treated 24 hours later with a compound of the invention dissolved in DMSO at multiple concentrations ranging from 0.01 μM to 100 μM. The plates were examined 96 hours later under an inverted microscope, Olympus CK-2 using a 10× objective, and compound activity was noted by physical observation. When necessary, the total number of viable cells was determined by trypsinizing the wells and counting the number of viable cells, as determined by trypan blue exclusion, using a hemacytometer. Where “Lower” and “Upper” value are provided in Table 5, the IC50 was determined to be within that range. When only a “Lower” value is provided and no “Upper” value is listed, the IC50 was that value, or less than or greater than that value, as set forth in the Table.
(§4) The cytotoxicity of Compound 42, (Z)-6-((2,6-dichlorobenzyl)sulfonyl)-2-(4-hydroxy-3-nitrobenzylidene)-2H-benzo[b][1,4]thiazin-3(4H)-one, was determined according the assay method of Example 7 on the prostate (androgen dependent or independent), breast and pancreatic cancer cell lines listed in Table 6A, below, and the additional cell lines listed in Table 6B, below. The human mesenchymal stem cell line HMSC.hTERT and normal human fibroblast cell line HFL was included in the test.

CK2α = biological target: T2, CK2α (Homo sapiens, UniProt P68400); assay: Casein kinase 2 inhibition, CK2α subunit (32P-ATP kinase assay); format: biochemical; details: 20 μM cold ATP; 30 min preincubation, 20 min at 30° C.
T2 construct: CK2α (human full length protein)
Protocol: (§5) The ability of Compound 42 to inhibit the activity of casein kinase 2 (CK2) was determined as follows using the catalytic CK2 subunits CK2α and CK2α2. Two and one half nanograms of CK2α (human full length protein; Invitrogen PV3248), 2.5 ng of a CK2α form containing amino acids 3-339) or 10 ng of CK2α2 (human full length protein; Invitrogen PV3624) was diluted into kinase buffer (20 mM Tris pH 7.5, 10 mM MgCl2, 0.01% NP-40, 1 mM EGTA, 2 mM DTT) and incubated with varying concentrations of Compound 42 at room temperature for 30 minutes. Kinase reactions were initiated by the addition of 1 μg of CK2 substrate α-synuclein or 40 μM CK2 synthetic peptide substrate (AnaSpec, San Jose, Calif.), 20 μM cold ATP, and 20 μCi γ-^32P-ATP. The reactions were incubated at 30° C. for 20 minutes, terminated by the addition of 2× Laemmle sample buffer, boiled for 2 minutes, resolved by 12% acrylamide SDS-PAGE, and subjected to autoradiography.

VCAP = assay: Cancer cell cytotoxicity assay, VCAP; format: cell-based; details: Homo sapiens, Prostate Cancer
Protocol: as §1, §2

HFL = assay: Cytotoxicity assay, normal human fibroblast cell line HFL; format: cell-based
Protocol: as §1, §2

GRANTA = assay: Cancer cell cytotoxicity assay, GRANTA; format: cell-based; details: Mantle cell lymphoma
Protocol: as §1, §2

[2] = test system: K562 (chronic myelogenous leukemia; leukemia cell line +ve for Bcr-Abl); assay: Cytotoxicity assay, K562 tumor cells; format: cell-based; details: Homo sapiens
Protocol: as §3, §4

Z138C = assay: Cancer cell cytotoxicity assay, Z138C; format: cell-based; details: Mantle cell lymphoma
Protocol: as §1, §2

MCF10A = assay: Cytotoxicity assay, MCF10A; format: cell-based; details: Homo sapiens, MCF-10A, Normal Breast
Protocol: as §1, §2

HMSC.hTERT = assay: Cytotoxicity assay, human mesenchymal stem cell line HMSC.hTERT; format: cell-based
Protocol: as §1, §2

LnCap = assay: Cancer cell cytotoxicity assay, LnCap; format: cell-based; details: Homo sapiens, Prostate Cancer (Androgen Dependent)
Protocol: as §1, §2

CK2α2 = biological target: T3, CK2α2 (Homo sapiens, UniProt P19784); assay: Casein kinase 2 inhibition, CK2α2 subunit (32P-ATP kinase assay); format: biochemical; details: 20 μM cold ATP; 30 min preincubation, 20 min at 30° C.
T3 construct: CK2α2 (human full length protein; Invitrogen PV3624); purchased Invitrogen PV3624
Protocol: as §5

MCF-7 = assay: Cancer cell cytotoxicity assay, MCF-7; format: cell-based; details: Homo sapiens, MCF7; MCF-7, Breast Cancer
Protocol: as §1, §2

HCT-116 = assay: Cancer cell cytotoxicity assay, HCT-116; format: cell-based; details: Homo sapiens; HCT-116, Colon cancer
Protocol: as §1, §2

MDA.MB-468 = assay: Cancer cell cytotoxicity assay, MDA.MB-468; format: cell-based; details: Homo sapiens; MDA.MB-468, Breast Cancer
Protocol: as §1, §2

U266B1 = assay: Cancer cell cytotoxicity assay, U266B1; format: cell-based; details: U266B1, Multiple Myeloma
Protocol: as §1, §2

T2 sequence (P68400 3-339 limits assumed): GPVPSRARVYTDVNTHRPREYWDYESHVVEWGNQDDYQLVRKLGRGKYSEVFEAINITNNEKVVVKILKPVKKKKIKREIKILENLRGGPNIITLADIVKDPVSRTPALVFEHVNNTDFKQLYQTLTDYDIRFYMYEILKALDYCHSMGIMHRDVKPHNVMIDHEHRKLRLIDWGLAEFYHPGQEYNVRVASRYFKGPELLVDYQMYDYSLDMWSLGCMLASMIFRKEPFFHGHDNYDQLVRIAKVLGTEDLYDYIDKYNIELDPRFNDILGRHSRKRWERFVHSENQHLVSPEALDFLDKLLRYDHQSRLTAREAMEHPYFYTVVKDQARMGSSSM
T1 sequence (P11309 whole entry): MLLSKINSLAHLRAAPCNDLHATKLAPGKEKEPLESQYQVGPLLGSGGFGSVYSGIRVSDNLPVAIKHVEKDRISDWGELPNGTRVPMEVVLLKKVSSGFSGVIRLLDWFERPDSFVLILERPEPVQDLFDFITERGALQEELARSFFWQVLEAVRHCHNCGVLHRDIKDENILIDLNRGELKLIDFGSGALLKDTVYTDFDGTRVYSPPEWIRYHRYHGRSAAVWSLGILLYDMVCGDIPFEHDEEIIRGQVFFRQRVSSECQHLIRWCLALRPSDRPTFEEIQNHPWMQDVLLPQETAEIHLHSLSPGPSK
T3 sequence (P19784 whole entry): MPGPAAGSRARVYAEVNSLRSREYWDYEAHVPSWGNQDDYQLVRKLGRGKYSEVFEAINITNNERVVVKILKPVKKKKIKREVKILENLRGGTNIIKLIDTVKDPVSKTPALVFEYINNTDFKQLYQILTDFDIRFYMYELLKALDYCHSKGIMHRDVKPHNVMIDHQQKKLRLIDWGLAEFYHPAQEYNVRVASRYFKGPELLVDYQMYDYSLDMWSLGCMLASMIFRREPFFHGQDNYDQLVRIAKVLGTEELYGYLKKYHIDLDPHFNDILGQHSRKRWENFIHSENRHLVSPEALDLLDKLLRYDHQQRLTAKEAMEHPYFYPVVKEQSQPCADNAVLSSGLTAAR

O=C1Nc2cc(S(=O)(=O)Cc3c(Cl)cccc3Cl)ccc2S/C1=C\c1ccc(O)c([N+](=O)[O-])c1 [Compound 42, (Z)-6-((2,6-dichlorobenzyl)sulfonyl)-2-(4-hydroxy-3-nitrobenzylidene)-2H-benzo[b][1,4]thiazin-3(4H)-one]
GI50 (MiaPaca 2): 90 nM | IC50 (PIM1): 226 nM | cell cycle arrest in cancer cells [1]: induces cell cycle arrest | GI50 (MDA.MB-231): 120 nM | IC50 (DU145 (prostate cancer); DU-145, 96 h treatment, lower limit of the IC50 range, or the IC50 itself (or its bound) where no Upper value is listed, read-out: DU145 IC50 (μm) Lower (μm)): 150 nM | GI50 (DU145 (prostate cancer); DU-145, Prostate Cancer (Androgen Independent)): 160 nM | IC50 (CK2α): 362 nM | GI50 (VCAP): 180 nM | cell death in the normal human fibroblast cell line (HFL): did not cause cell death | GI50 (HFL; Homo sapiens, Normal Fibroblast): > 10000 nM | GI50 (GRANTA): 80 nM | IC50 ([2]; K562, 96 h treatment, lower limit of the IC50 range, or the IC50 itself (or its bound) where no Upper value is listed, read-out: K562 IC50 (μm) Lower (μm)): 100 nM | GI50 ([2]; K562, Chronic myelogenous leukemia): 160 nM | GI50 (Z138C): 70 nM | GI50 (MCF10A): 2500 nM | cell death in the normal human stem cell line (HMSC.hTERT): did not cause cell death | GI50 (HMSC.hTERT; Human Mesenchymal Stem cells): > 10000 nM | GI50 (LnCap): 250 nM | IC50 (CK2α2): 83.1 nM | GI50 (MCF-7): 1000 nM | GI50 (HCT-116): 150 nM | GI50 (MDA.MB-468): 200 nM | GI50 (U266B1): 100 nM
